Test system: T1, L-asparaginase from Bacillus licheniformis RAM-8
T1 construct: gene L-asparagine amidohydrolase
Conditions: 25 °C; L-asparagine 2 to 20 mM; assay buffer 50 mM Tris-HCl pH 8.6

Km: 14 µM
Structure (SMILES): NC(=O)C[C@H](N)C(=O)O [L-asparagine]
